Experimental data reported in patent publication US11485751B2, “Apramycin derivatives” (WAYNE STATE UNIVERSITY, priority 2017, dated 2022).
≈ marks a conversion by molar mass, not a printed value. Like-named read-outs stand apart in the source and are kept apart here.

What was measured:
[1] = test system: AG212, Escherichia coli ATCC25922; assay: MIC reference strain AG212; assay type: cell-based; conditions: Escherichia coli
Description: (§1) Minimal inhibitory concentrations (MIC) have been determined by broth microdilution assays (CLSI. Methods for Dilution Antimicrobial Susceptibility Tests for Bacteria That Grow Aerobically; Approved Standard—Tenth Edition. CLSI document M07-A10. Wayne, Pa.: Clinical and Laboratory Standards Institute; 2015.).
(§2) Table 4 and 5 show the antibacterial activity of the compounds of the invention against bacterial reference strains (table 4) and against representative clinical isolates (table 5).
(§3) Legend to Tables: GEN, gentamicin; AMK, amikacin; PLZ, plazomicin; APR, apramycin; AG212, Escherichia coli ATCC25922; AG215, Klebsiella pneumonia; AG220, Pseudomonas aeruginosa ATCC27853; AG225, Acinetobacter baumannii pittii; AG290, Enterobacter cloacae; […], Mycobacterium smegmatis. MICs for AG192 have been determined in the presence of 0.5 μg/mL of ampicillin in the medium to mimic the synergistic effect of aminoglycoside and β-lactam antibiotics combination therapy in the treatment of Enterococcus infections in humans.

[2] = test system: AG215, Klebsiella pneumonia; assay: MIC reference strain AG215; assay type: cell-based; conditions: Klebsiella pneumoniae, read-out: MIC AG215 K. pneumonia
Description: as §1, §2, §3

[3] = test system: AG290, Enterobacter cloacae; assay: MIC reference strain AG290; assay type: cell-based; conditions: Enterobacter cloacae, read-out: MIC AG290 E. cloacae
Description: as §1, §2, §3

[4] = test system: AG220, Pseudomonas aeruginosa ATCC27853; assay: MIC reference strain AG220; assay type: cell-based; conditions: Pseudomonas aeruginosa
Description: as §1, §2, §3

[5] = test system: AG225, Acinetobacter baumannii pittii; assay: MIC reference strain AG225; assay type: cell-based; conditions: Acinetobacter baumannii, read-out: MIC AG225 A. baumannii
Description: as §1, §2, §3

ATCC19977 M. abcessus = assay: MIC reference strain ATCC19977; assay type: cell-based; conditions: read-out: MIC ATCC19977 M. abcessus
Description: as §1, §2

AG001 E. coli WT = assay: Antibacterial activity, clinical isolate AG001; assay type: cell-based; set-up: unit not given here
Description: as §1, §2

AG055 E. coli WT = assay: Antibacterial activity, clinical isolate AG055; assay type: cell-based; set-up: unit not given here
Description: as §1, §2

AG003 E. coli AAC(3)-II = assay: Antibacterial activity, clinical isolate AG003; assay type: cell-based
Description: as §1, §2

AG038 MRSA = assay: Antibacterial activity, clinical isolate AG038; assay type: cell-based; set-up: unit not given here
Description: as §1, §2

[6] = test system: AG039 MRSA AAC(6′)-I ANT(4′)-I; assay: Antibacterial activity, clinical isolate AG039; assay type: cell-based
Description: as §1, §2

[7] = test system: AG042 MRSA AAC(6′)-I ANT(4′)-I APH(2′); assay: Antibacterial activity, clinical isolate AG042; assay type: cell-based; set-up: unit not given here
Description: as §1, §2

AG031 P. aer. APH(3′)-II = assay: Antibacterial activity, clinical isolate AG031; assay type: cell-based; set-up: unit not given here
Description: as §1, §2

AG032 P. aer. APH(3′)-II = assay: Antibacterial activity, clinical isolate AG032; assay type: cell-based; set-up: unit not given here
Description: as §1, §2

[8] = test system: AG033 P. aer. APH(3′)-II AAC(6′)-I; assay: Antibacterial activity, clinical isolate AG033; assay type: cell-based; set-up: unit not given here
Description: as §1, §2

[9] = test system: Engineered E. coli pH430 WT; assay: Activity, engineered E. coli pH430 WT; assay type: cell-based; conditions: wild type
Description: as §1

[10] = test system: Engineered E. coli AG103 armA; assay: Activity against G1405-methylated 16S-rRNA, E. coli AG103 armA; assay type: cell-based
Description: as §1

WT clinical isolates = assay: MIC broth microdilution, WT; assay type: cell-based; conditions: read-out: MIC WT, clinical isolates, IMM Univ. Zurich; wild type
Description: as §1
(§4) Minimal inhibitory concentrations (MICs, […]) against clinical isolates from Institute of Medical Microbiology, Univ. Zurich, and the IC50 values for bacterial, human mitochondrial and human cytosolic ribosomes are indicated.
(§5) Minimal inhibitory concentrations (μg/ml) against clinical isolates from Institute of Medical Microbiology, Univ. Zurich, and the IC50 values for bacterial, human mitochondrial and human cytosolic ribosomes are indicated.
(§6) The Minimal inhibitory concentrations (MICs, μg/ml) against clinical isolates from Institute of Medical Microbiology, Univ Zurich, and the IC50 values for bacterial, human mitochondrial and human cytosolic ribosomes are indicated.

bacterial ribosomes = assay: in-vitro translation assay, bacterial ribosomes; assay type: biochemical
Description: (§7) IC50 values for bacterial, human chimeric, and rabbit reticulocyte ribosomes have been determined by in-vitro translation assays as described previously (Proc. Nat. Ac. Sci USA 2012, 109(27):10984-10989).
as §4

[11] = test system: human mitochondrial ribosomes; assay: in-vitro translation assay, human mitochondrial (human chimeric) ribosomes; assay type: biochemical
Description: as §7, §4

[12] = test system: human cytosolic ribosomes; assay: in-vitro translation assay, human cytosolic ribosomes; assay type: biochemical
Description: as §7, §4

[13] = test system: clinical isolates carrying AAC(3)-IV; assay: MIC broth microdilution, AAC(3)-IV; assay type: cell-based; conditions: clinical isolates, IMM Univ. Zurich; AAC(3)-IV; read-out: MIC AAC(3)-IV
Description: as §1, §4, §5, §6

isolates carrying apmA = assay: MIC broth microdilution, apmA; assay type: cell-based; conditions: apmA resistance gene
Description: as §1, with “2015.). […]” for “2015.).”
as §5, §6

[14] = test system: SZ380, Mycobacterium smegmatis; assay: MIC reference strain SZ380; assay type: cell-based; conditions: Mycolicibacterium smegmatis, reference strain; read-out: MIC SZ380 M. smegmatis
Description: as §1, §2, §3

AG173 E. coli AAC(3)-IV = assay: Antibacterial activity, clinical isolate AG173; assay type: cell-based
Description: as §1, §2

[15] = test system: Engineered E. coli pH424 armA; assay: Activity against G1405-methylated 16S-rRNA, E. coli pH424 armA; assay type: cell-based
Description: as §1

[16] = test system: Engineered E. coli pH425 rmtB; assay: Activity against G1405-methylated 16S-rRNA, E. coli pH425 rmtB; assay type: cell-based
Description: as §1

[17] = test system: Engineered E. coli pH426 rmtC; assay: Activity against G1405-methylated 16S-rRNA, E. coli pH426 rmtC; assay type: cell-based
Description: as §1

[18] = test system: Engineered E. coli pH427 rmtF; assay: Activity against G1405-methylated 16S-rRNA, E. coli pH427 rmtF; assay type: cell-based
Description: as §1

[19] = reference strain ATCC25922, read-out: MIC AG212 E. coli
[20] = ATCC27853, reference strain ATCC27853, read-out: MIC AG220 P. aeruginosa

| Structure (SMILES) | MIC [1, 19] | MIC ([2]; reference strain) | MIC ([3]; reference strain) | MIC [4, 20] | MIC ([5]; reference strain) | MIC (ATCC19977 M. abcessus) | Antibacterial activity AG001 E. coli WT (AG001 E. coli WT) | Antibacterial activity AG055 E. coli WT (AG055 E. coli WT) | Antibacterial activity AG003 E. coli AAC(3)-II (AG003 E. coli AAC(3)-II) | Antibacterial activity AG038 MRSA (AG038 MRSA) | Antibacterial activity AG039 MRSA AAC(6′)-I ANT(4′)-I [6] | Antibacterial activity AG042 MRSA AAC(6′)-I ANT(4′)-I APH(2′) [7] | Antibacterial activity AG031 P. aer. APH(3′)-II (AG031 P. aer. APH(3′)-II) | Antibacterial activity AG032 P. aer. APH(3′)-II (AG032 P. aer. APH(3′)-II) | Antibacterial activity AG033 P. aer. APH(3′)-II AAC(6′)-I [8] | Activity E. coli pH430 WT [9] | Activity E. coli AG103 armA [10] | MIC (WT clinical isolates) | IC50 (bacterial ribosomes) | IC50 [11] | further results |
| --- | --- | --- | --- | --- | --- | --- | --- | --- | --- | --- | --- | --- | --- | --- | --- | --- | --- | --- | --- | --- | --- |
| CN[C@@H]1[C@@H](O)[C@@H](O[C@@H]2[C@@H](O)[C@H](O[C@H]3OC(CNCCO)=CC[C@H]3N)[C@@H](N)C[C@H]2NC(=O)[C@@H](O)CCN)OC[C@]1(C)O [PLZ, plazomicin, reference compound] | 0.5 to 1 mg/L | 0.25 to 0.5 mg/L | 0.5 mg/L | 2 to 4 mg/L | 2 mg/L | 4 mg/L (≈ 6.75 µM) | 2-4 | 2-4 | 2-4 | 2-4 | 2-4 | 2 | 4 | 4 | 16-32 | 0.5 | >32 |  |  |  |  |
| CNC1C(OC2OC(CO)C(N)C(O)C2O)OC2CC(N)C(OC3C(N)CC(N)C(O)C3OCC(O)CN)OC2C1O (stereo not shown) [DC212] |  |  |  |  |  |  | 8 |  |  | 4 |  |  | 8 |  |  |  |  | 4 mg/L (≈ 6.53 µM) | 0.1 µM | 158 µM | IC50 [12]: 112 µM; MIC ([1]; ATCC25922, read-out: MIC AG212 E. coli): 4 mg/L; MIC [2]: 2 mg/L; MIC [3]: 4 mg/L; MIC ([4]; ATCC27853, read-out: MIC AG220 P. aeruginosa): 4 mg/L; MIC [5]: 4 mg/L |
| CNC1C(OC2OC(CO)C(N)C(O)C2O)OC2CC(N)C(OC3C(N)CC(N)C(O)C3F)OC2C1O (stereo not shown) [DC170, 5-Deoxy-5-fluoro apramycin] | 4 mg/L | 2 mg/L | 4 mg/L | 8 mg/L | 4 to 8 mg/L | 1 mg/L (≈ 1.85 µM) | 8 | 4 | 8 | 4-8 | 4-8 | 8 | 8-16 | 16 | 32 | 4 | 2 | 4 mg/L (≈ 7.39 µM) | 0.06 µM | 62 µM | MIC [13]: > 32 mg/L; MIC apmA (isolates carrying apmA): 32 mg/L (≈ 59.1 µM); IC50 [12]: 74 µM; MIC [14]: 0.25 mg/L; Antibacterial activity AG173 E. coli AAC(3)-IV (AG173 E. coli AAC(3)-IV): 64; Activity E. coli pH424 armA [15]: 2; Activity E. coli pH425 rmtB [16]: 4; Activity E. coli pH426 rmtC [17]: 4; Activity E. coli pH427 rmtF [18]: 4 |
